Data on 28 compounds can be found in article PMC6017655, “In Silico and in Vitro-Guided Identification of Inhibitors of Alkylquinolone-Dependent Quorum Sensing in Pseudomonas aeruginosa” (Molecules : A Journal of Synthetic Chemistry and Natural …, 2018).

What all share (type): cell-based, Pseudomonas aeruginosa
Assay [1] relates to PqsR (pqsA promoter, PA14 mCTX::PpqsA-lux). Kind of assay: Whole cell biosensor reporter assay, PA14 mCTX::PpqsA-lux. To be noted: Pseudomonas aeruginosa, PA14, read-out: PA14 Remaining Activity %. As to the method:
(§1) To determine the ability of the quinolines to inhibit PqsR functionality, the P. aeruginosa biosensor strains, PAO1-L and PA14, incorporating a chromosomal mCTX::PpqsA-lux transcriptional fusion, were used. These report on the activation of the pqsA promoter, regulated by PqsR [25]. PAO1-L and PA14 were chosen because they are genetically amenable and belong to the two major P. aeruginosa genomic groups. The quinolone compounds were incubated with the corresponding strain, and luminescence and optical density readings were recorded to monitor the effect of the quinolines on PqsR activity and bacterial growth, respectively. The compounds were screened at 10 µM concentration, and the activity was compared to a control of DMSO (0.1%) (Figure 3a). To be considered a hit, a threshold of at least 50% inhibition of the test compound, relative to the negative control had to be reached, without affecting bacterial growth. […] Concentration-response experiments were then carried out to determine the IC50 values (Figure 3b,c), which are summarised in Table 1.
(§2) Strains PA14 mCTX::PpqsA-lux and PAO1-L mCTX::PpqsA-lux were constructed using plasmid mini-CTX::PpqsA-lux, as previously described, and the assay was performed according to a published protocol. For screening, the compounds were tested at a concentration of 10 µM, which was prepared from a 10 mM stock, in DMSO.
On the technique in general: Reporter assays use an easily measured gene product as a stand-in for the process of interest.

The test system of assay [2] is PqsR (pqsA promoter, PAO1-L mCTX::PpqsA-lux). Description: Whole cell biosensor reporter assay, PAO1-L mCTX::PpqsA-lux. To be noted: Pseudomonas aeruginosa, PAO1, read-out: PAO1-L Remaining Activity %. How it is done:
as §1, §2

In another assay the test system is PA14 biofilms. Description: Biofilm assay on glass coverslips, GFP-labelled PA14. To be noted: Ia 8 µM; tobramycin 100 µg/mL for 4 h. As to the method: (§3) One of the clinical challenges of P. aeruginosa infections is the difficulty associated with the effective treatment of biofilms due to their high resistance to antibiotics. […] The effect of Ia, with or without tobramycin, on PA14 and PAO1-L biofilms grown on glass coverslips, was determined. […] The experiment was performed using green fluorescent labelled (GFP)-labelled PAO1-L and PA14 strains, grown under four different conditions: (i) no treatment (control); (ii) compound Ia at 8 µM in PA14 and 34 µM in PAO1-L (concentrations equal to 3× IC50); (iii) tobramycin at 100 µg/mL; (iv) Ia and tobramycin, at the same concentrations as (ii) and (iii).
(§4) Biofilms were cultivated on borosilicate glass coverslips in petri dishes. P. aeruginosa strains, PAO1-L and PA14, were labelled by transformation with plasmid pMMG, which constitutively expresses GFP from the Ptac promoter. Labelled strains were grown at 37 °C, for 16 h, in 2 mL RPMI-1640 (Lonza, Slough, UK), supplemented with 20 mM D-glucose (Sigma–Aldrich, Dorset, UK) and 2 µM FeCl3 (Sigma–Aldrich, Dorset, UK). Cultures were diluted 1:100 in fresh medium and allowed to grow for a further 4 h, or until an OD600 of 0.5 was reached. The mid-logarithmic cultures were diluted to an OD600 of 0.01 in 25 mL RPMI, supplemented with glucose and FeCl3, and inoculated into petri dishes containing UV sterilised borosilicate glass coverslips (22 × 22 mm, thickness no1) (VWR, Lutterworth, UK). Bacterial cells were seeded at 37 °C under static conditions for 1.5 h, and compound Ia was added to the culture at a concentration of 34 µM for P. aeruginosa PAO1-L and 8 µM for PA14 before dishes were moved to a shaker at 60 rpm and 37 °C for 15 h to form mature biofilms. Tobramycin and propidium iodide were added to the 15 h-old cultures at concentrations of 100 µg/mL and 2 µM, respectively, followed by further incubation for 4 h. Coverslips were examined under a Laser Scanning Fluorescent Microscope (LSM2, Zeiss, Oberkochen, Germany). Biofilms were visualised using egfp mode at an excitation wavelength of 488nm. Imaging was carried out using Zen 2011 imaging software (Zeiss, Oberkochen, Germany). A total of 5 Z-stacked images were collected per coverslip. Sampling was conducted at random from the central portion of each coverslip. Biomass was calculated using Image J (NIH, Bethesda, MD, USA) and Comstat 2.1. Software package (www.comstat.dk, lyngby, Denmark).

A further assay relates to PAO1-L biofilms. Description: Biofilm assay on glass coverslips, GFP-labelled PAO1-L. Particulars: Ia 34 µM; tobramycin 100 µg/mL for 4 h. As to the method: as §3, §4

For the compound `CC(=O)N1N=C(c2ccc(C)cc2)CC1c1cccc(Nc2ccnc3cc(C(F)(F)F)ccc23)c1` (stereo not shown) [IIj], the activity at 10 µM in assay [1] was determined as 108 ± 6.05%; in assay [2], 97.3 ± 6.46%.

Consider `Cc1ccc(C2=NN(C=O)C(c3cccc(Nc4ccnc5cc(C(F)(F)F)ccc45)c3)C2)cc1` (stereo not shown) [Ij], for which the activity at 10 µM turned out to be 84.9 ± 8.17% in assay [1] and 93.7 ± 6.15% in assay [2].

As for `NC[C@H]1O[C@H](O[C@H]2[C@H](O)[C@@H](O[C@H]3O[C@H](CO)[C@@H](O)[C@H](N)[C@H]3O)[C@H](N)C[C@@H]2N)[C@H](N)C[C@@H]1O` [tobramycin, reference compound], in the assay with PA14 biofilms, the “Effect on biofilm biomass, PA14” value is recorded as “significantly reduced biofilm biomass” and the “Effect on cell viability in biofilm (propidium iodide), PA14” value is recorded as “increasing the proportion of dead bacterial cells substantially”. In addition, in the assay with PAO1-L biofilms, the “Effect on biofilm biomass, PAO1-L” value was “significantly reduced biofilm biomass” and the “Effect on cell viability in biofilm (propidium iodide), PAO1-L” value is listed as “increasing the proportion of dead bacterial cells substantially”.

On to `O=CN1N=C(c2ccc(Br)cc2)CC1c1cccc(Nc2ccnc3cc(C(F)(F)F)ccc23)c1` (stereo not shown) [Io], for which the results for the activity at 10 µM in assay [1] and in assay [2] were 80.6 ± 6.26% and 68.5 ± 3.43%, respectively.

On to `O=CN1N=C(c2ccc3c(c2)OCO3)CC1c1cccc(Nc2ccnc3cc(C(F)(F)F)ccc23)c1` (stereo not shown) [Ip], for which the activity at 10 µM in assay [1] turned out to be 81.4 ± 9.36%; in assay [2] it was 84.3 ± 5.48%.

On to `O=CN1N=C(c2ccc3c(c2)OCO3)CC1c1cccc(Nc2ccnc3cc(Cl)ccc23)c1` (stereo not shown) [Ih], for which the activity at 10 µM is 85.8 ± 9.42% in assay [1] and 49.9 ± 12% in assay [2].

Turning to `CC(=O)N1N=C(c2ccc(Cl)cc2)CC1c1cccc(Nc2ccnc3cc(Cl)ccc23)c1` (stereo not shown) [IIf], the results for the activity at 10 µM in assay [1] and in assay [2] were 103 ± 4.91% and 90.2 ± 3.84%, respectively.

As to `O=CN1N=C(c2ccc(Cl)cc2)CC1c1cccc(Nc2ccnc3cc(C(F)(F)F)ccc23)c1` (stereo not shown) [In], the values for the activity at 10 µM in assay [1] and in assay [2] were 93.6 ± 4.45% and 61.8 ± 3.97%, respectively.

`COc1cc(C2=NN(C(C)=O)C(c3cccc(Nc4ccnc5cc(C(F)(F)F)ccc45)c3)C2)cc(OC)c1OC` (stereo not shown) [IIl]: the activity at 10 µM in assay [1] stood at 103 ± 4.84%; in assay [2], 86.1 ± 2.39%.

On to `COc1cc(C2=NN(C=O)C(c3cccc(Nc4ccnc5cc(Cl)ccc45)c3)C2)cc(OC)c1OC` (stereo not shown) [Id], for which the activity at 10 µM was 110 ± 15% in assay [1] and 130 ± 5.04% in assay [2].

With `O=CN1N=C(c2ccc(F)cc2)CC1c1cccc(Nc2ccnc3cc(Cl)ccc23)c1` (stereo not shown) [Ie], the activity at 10 µM in assay [1] amounted to 70.4 ± 6.53%; in assay [2], 40.6 ± 3.71%.

For the compound `COc1cc(C2=NN(C=O)C(c3cccc(Nc4ccnc5cc(C(F)(F)F)ccc45)c3)C2)cc(OC)c1OC` (stereo not shown) [Il], the activity at 10 µM in assay [1] was 106 ± 15.3%; in assay [2], 85.8 ± 2.39%.

On to `CC(=O)N1N=C(c2ccc(F)cc2)CC1c1cccc(Nc2ccnc3cc(C(F)(F)F)ccc23)c1` (stereo not shown) [IIm], for which the activity at 10 µM was found to be 99.9 ± 3.17% in assay [1] and 90.2 ± 4.4% in assay [2].

Take `CC(=O)N1N=C(c2ccc3c(c2)OCO3)CC1c1cccc(Nc2ccnc3cc(C(F)(F)F)ccc23)c1` (stereo not shown) [IIp]: the activity at 10 µM in assay [1] is 99.6 ± 4.09%; in assay [2], 71.6 ± 5.07%.

Regarding `Cc1ccc(C2=NN(C=O)C(c3cccc(Nc4ccnc5cc(Cl)ccc45)c3)C2)cc1` (stereo not shown) [Ib], the activity at 10 µM worked out at 78.4 ± 6.51% in assay [1] and 77 ± 2.25% in assay [2].

For the compound `CC(=O)N1N=C(c2ccc(Cl)cc2)CC1c1cccc(Nc2ccnc3cc(C(F)(F)F)ccc23)c1` (stereo not shown) [IIn], the activity at 10 µM in assay [1] stood at 98.1 ± 11.4%; in assay [2], 97.8 ± 5.52%.

Turning to `COc1ccc(C2=NN(C(C)=O)C(c3cccc(Nc4ccnc5cc(Cl)ccc45)c3)C2)cc1` (stereo not shown) [IIc], the results for the activity at 10 µM in assay [1] and in assay [2] were 115 ± 2.13% and 120 ± 8.28%, respectively.

As to `COc1ccc(C2=NN(C=O)C(c3cccc(Nc4ccnc5cc(C(F)(F)F)ccc45)c3)C2)cc1` (stereo not shown) [Ik], the activity at 10 µM in assay [1] came to 99.7 ± 9.37%; in assay [2], 78.6 ± 5.75%.

As to `COc1ccc(C2=NN(C=O)C(c3cccc(Nc4ccnc5cc(Cl)ccc45)c3)C2)cc1` (stereo not shown) [Ic], the activity at 10 µM was found to be 102 ± 11.7% in assay [1] and 100 ± 8.46% in assay [2].

`COc1ccc(C2=NN(C(C)=O)C(c3cccc(Nc4ccnc5cc(C(F)(F)F)ccc45)c3)C2)cc1` (stereo not shown) [IIk]: the activity at 10 µM in assay [1] stood at 118 ± 5.97%; in assay [2] it was 66.7 ± 0.42%.

Take `CC(=O)N1N=C(c2ccc(F)cc2)CC1c1cccc(Nc2ccnc3cc(Cl)ccc23)c1` (stereo not shown) [IIe]: the figures for the activity at 10 µM in assay [1] and in assay [2] were 120 ± 1.59% and 82.6 ± 22.7%, respectively.

Regarding `O=CN1N=C(c2ccc(Br)cc2)CC1c1cccc(Nc2ccnc3cc(Cl)ccc23)c1` (stereo not shown) [Ig], the activity at 10 µM worked out at 94.8 ± 8.91% in assay [1] and 88.1 ± 6.05% in assay [2].

Consider `COc1cc(C2=NN(C(C)=O)C(c3cccc(Nc4ccnc5cc(Cl)ccc45)c3)C2)cc(OC)c1OC` (stereo not shown) [IId], for which the activity at 10 µM was determined as 110 ± 1.6% in assay [1] and 127 ± 9.69% in assay [2].

On to `CC(=O)N1N=C(c2ccc(C)cc2)CC1c1cccc(Nc2ccnc3cc(Cl)ccc23)c1` (stereo not shown) [IIb], for which the activity at 10 µM turned out to be 96.2 ± 4.34% in assay [1] and 59.5 ± 1.86% in assay [2].

Regarding `CC(=O)N1N=C(c2ccc(Br)cc2)CC1c1cccc(Nc2ccnc3cc(Cl)ccc23)c1` (stereo not shown) [IIg], the activity at 10 µM in assay [1] is 109 ± 2.79%; in assay [2], 63.7 ± 5.01%.

Turning to `CC(=O)N1N=C(c2ccc(Br)cc2)CC1c1cccc(Nc2ccnc3cc(C(F)(F)F)ccc23)c1` (stereo not shown) [IIo], the activity at 10 µM turned out to be 95.6 ± 9.58% in assay [1] and 80.8 ± 5.06% in assay [2].

With `CC(=O)N1N=C(c2ccc3c(c2)OCO3)CC1c1cccc(Nc2ccnc3cc(Cl)ccc23)c1` (stereo not shown) [IIh], the activity at 10 µM in assay [1] turned out to be 115 ± 6.02%; in assay [2], 65.8 ± 5.63%.

As for `O=CN1N=C(c2ccc(F)cc2)CC1c1cccc(Nc2ccnc3cc(C(F)(F)F)ccc23)c1` (stereo not shown) [Im], the activity at 10 µM in assay [1] is 74.9 ± 8.28%; in assay [2], 65.1 ± 4.89%.
